Measured values: patent publication US12473313B2, “Therapeutic compounds and methods of use thereof” (Regents of the University of Minnesota, priority 2020, dated 2025)

Legend:
[1] = biological target: mitochondrial reactive oxygen species (mitoROS); assay: ROS-Glo Assay of superoxide dismutase activity on menadione-induced mitoROS; assay type: cell-based; details: for half maximal effective concentration (EC50) for mitoROS suppression: FIG. 6, compared with mitoTEMPO
Source text: To test compounds for mitochondrial antioxidant behavior, the ROS-Glo Assay to assess superoxide dismutase activity of induced mitochondrial reactive oxygen species (mitoROS). In this assay, menadione is used to induce mitoROS production, and then a […] is used to measure the resultant hydrogen peroxide levels. A higher level of hydrogen peroxide means more dismutase activity.

[2] = system: mitoROS in diabetic (DM) mice; assay: mitoROS in diabetic (DM) mice measured by mitoSOX Red fluorescence; assay type: in vivo; details: FIG. 9
Method: (§1) To test compound activity against mitochondrial oxidative stress and diastolic dysfunction Mice were fed a high fat diet for 16 weeks starting at 6 weeks of age. Before treatment, fasting blood glucose (Gluc) and body weight were measured. Gluc was used to screen for diabetes mellitus (DM). Echocardiography was used to identify DD by measuring the E/e′ ratio. Treatment of compounds 58 and 94 was 1 mg/kg/day for 2 weeks. Then, E/e′ was reassessed.

[3] = Body weight and serum glucose of treated diabetic mice; assay type: in vivo; details: 1 mg/kg/day for 2 weeks, versus before treatment
Method: as §1

diabetic mice = assay: Diastolic dysfunction (E/e′ ratio by echocardiography) in high fat diet diabetic mice; assay type: in vivo; details: diabetic mice (high fat diet 16 weeks), 1 mg/kg/day for 2 weeks
Method: as §1

mice with HFpEF = mice with HFpEF (Jeong et al. J Am Heart Assoc. 2016); cited from earlier work

Row | Compound | half maximal effective concentration (EC50) for mitoROS suppression [1] | body weight [3] | diastolic dysfunction as measured by E/e′ ratio (diabetic mice) | also measured
1 | COc1ccc([P@TB15+](CC(=O)NC2CC(C)(C)N([O])C(C)(C)C2)(c2ccc(OC)cc2)c2ccc(OC)cc2)cc1 [compound 2, 2,2,6,6-Tetramethyl-4-[[2-(tri-4-methoxyphenyl-phosphonio)acetyl]amino]-1-piperidinyloxy Chloride] | lower EC50s for mitoROS suppression than did mitoTEMPO | – | – | –
2 | COc1ccc([P+](CCC(=O)NC2CC(C)(C)N(O)C(C)(C)C2)(c2ccc(OC)cc2)c2ccc(OC)cc2)cc1.[Br-] [compound 58, 2,2,6,6-Tetramethyl-4-[[3-(tri-4-methoxyphenylphosphonio)-propionyl]amino]-1-piperidinyloxy Bromide] | – | Neither serum glucose nor body weight were affected | Diastolic dysfunction is treated | mitoROS as measured by mitoSOX Red fluorescence [2]: able to reduces mitoROS; half maximal inhibitory concentration (IC50) ([1]; ROS-Glo assay, FIG. 5, compared with mitoTEMPO): better than that of mitoTEMPO
3 | CC1(C)CC(NC(=O)CCCCC[P+](c2ccc(F)cc2)(c2ccc(F)cc2)c2ccc(F)cc2)CC(C)(C)N1[O].[Br-] [compound 86, 2,2,6,6-Tetramethyl-4-[[6-(tri-4-fluorophenylphosphonio)-hexanoyl]amino]-1-piperidinyloxy Bromide] | lower EC50s for mitoROS suppression than did mitoTEMPO | – | – | –
4 | COc1cc(OC)c([P+](CC(=O)NC2CC(C)(C)N([O])C(C)(C)C2)(c2c(OC)cc(OC)cc2OC)c2c(OC)cc(OC)cc2OC)c(OC)c1.[Cl-] [compound 88, 2,2,6,6-Tetramethyl-4-[[2-(tri-2,4,6-trimethoxyphenyl(2-phosphonia))acetyl]amino]-1-piperidinyloxy Chloride] | lower EC50s for mitoROS suppression than did mitoTEMPO | – | – | –
5 | CC1(C)CC(NC(=O)C[P+](c2ccc(F)cc2)(c2ccc(F)cc2)c2ccc(F)cc2)CC(C)(C)N1[O].[Cl-] [compound 94, 2,2,6,6-Tetramethyl-4-[[2-(tri-4-fluorophenylphosphonio)-acetyl]amino]-1-piperidinyloxy Chloride] | – | did not affect | Diastolic dysfunction is treated | –
6 | CC1(C)CC(NC(=O)C[P+](c2ccccc2)(c2ccccc2)c2ccccc2)CC(C)(C)N1[O] [mitoTEMPO] | – | – | – | diastolic function (mice with HFpEF): improve diastolic function
